Test results as given in PMC5532403, “Potential for a novel manganese porphyrin compound as adjuvant canine lymphoma therapy” (Cancer Chemotherapy and Pharmacology, 2017).
“And” between values parts separate entries of the source, which are not always exact repeats. Equal entries are not always repeated. “Also recorded” adds a separate entry of the source. Where two headings read alike, the source gives them in different places.

Experiments:
[1] = mice, cited from earlier work
[2] = parameters: method as in PMID 27098749; conditions: non-human primates, 1 mg/kg; cited from earlier work
normal dogs [3] = test: Pulse monitoring in multiple dose study; assay type: in vivo, dog; conditions: 0.25 mg/kg sc Mon/Wed/Fri
Method: (§1) Safety was assessed by evaluation of standard physical and laboratory parameters of systemic health. A full physical examination was performed prior to initiation of the study and on each treatment and sampling day. Indirect blood pressure monitoring was performed using Cardell Vet Monitor 9401 Blood Pressure Monitor. Pulse was quantified as heart beats per minute according to manual counts, as well as quantified with a blood pressure monitor. There was good correlation between pulse rates counted with manual methods compared to the blood pressure monitor (Figure S1). Standard laboratory assessments (complete blood cell count, biochemistry panel, urinalysis) were repeated throughout the phases of the study to assess systemic health.

[4] = Multiple dose pharmacokinetic study, plasma MnBuOE; assay type: in vivo, dog
Method: MnBuOE was administered at 0.25 mg/kg Monday, Wednesday, and Friday (MWF). Dogs were treated concurrently with diphenhydramine (2 mg/kg every 12 h), famotidine (0.5 mg/kg every 12 h), and prednisone (1 mg/kg every 12 h) throughout these studies. Blood/plasma was collected at two time points: 1 h post dose (expected high levels but “safely” away the peak at C max = 0.5 h) and just prior to injection (trough level). The results are presented on Fig. 4a. As expected, the trough levels measured were very low. […] This would imply that no change in the expected mild acute side effects should be observed. […] The change in pulse increased over time for both treatment week and day of the week. Baseline pulse prior to injection was not altered with multiple doses of MnBuOE.

mice = test system: mice; parameters: method as in PMID 27098749; conditions: sc every 3 days for 5 weeks; cited from earlier work
nonhuman primates = test system: nonhuman primates; parameters: method as in PMID 27098749; conditions: sc every 3 days for 5 weeks; cited from earlier work
normal dogs [5] = test: Laboratory health assessments (complete blood cell count, biochemistry panel, urinalysis); assay type: in vivo, dog
Method: as §1

[6] = Single-dose pharmacokinetic study, plasma MnBuOE by LC-MS/MS; assay type: in vivo, dog
Method: Intravenous catheters were placed in the jugular vein of each dog under heavy sedation (dexmedetomidine, 500 mcg/m^2) 24-h prior to initiation of the pharmacokinetic study to facilitate blood sampling. Baseline pulse and blood pressure (Cardell Vet Monitor 9401 Blood Pressure Monitor) were recorded prior administration of MnBuOE. MnBuOE (5.64 mg/mL) was injected subcutaneously in the dorsal intrascapular region. Following injection, 3–6 mL of blood was collected after 10 min, 30 min, 1 h, 2 h, 4 h, 6 h, 8 h, 24 h, 48 h, 72 h, 7 days, and 14 days into lithium heparin tubes (Vacutainer, 1.3 mL). Whole blood was centrifuged at 1500×g for 20 min, and plasma was collected and stored in 1% citric acid at −80 °C.
Relevant PK parameters (e.g. C max, T max, AUC, clearance, t 1/2) were obtained by compartmental and non-compartmental modules within WinNonlin v. Plasma MnBuOE levels peaked at 30 min post-injection with a mean concentration of 3.993 μM (Fig. 2a), followed by a complex tissue distribution profile (non-linear trace in log-linear plot) within first 6 h post injection (Fig. 2a). […] Compartmental (first-order absorption—2 compartment model) calculations including 0–48 h data were performed on the averaged PK profile for the purpose of obtaining PK parameters needed for the simulation of the multi-dose regimen.

normal dogs [7] = test: Histopathologic evaluation of necropsy tissues; assay type: in vivo, dog; conditions: 0.25 mg/kg Mon/Wed/Fri five doses
Method: Tissue samples collected at necropsy were stored in 10% neutral buffered formalin, paraffin embedded, sectioned, and stained with hematoxylin and eosin. Histopathologic evaluations of the tissues were performed by a veterinary pathologist (KGB).

[8] = parameters: method as in unpublished data; conditions: rats, 1 mg/kg; ref unpublished data; cited from earlier work
[9] = 0.25 mg/kg sc Mon/Wed/Fri for 3 weeks, 1 h post-injection
[10] = 3 weeks post 0.25 mg/kg Mon/Wed/Fri, concurrent oral medications
[11] = single 1 mg/kg sc, first order absorption two compartments
[12] = single 1 mg/kg sc, non-compartmental

CCCCOCC[n+]1ccccc1-c1c2nc(c(-c3cccc[n+]3CCOCCCC)c3ccc([n-]3)c(-c3cccc[n+]3CCOCCCC)c3nc(c(-c4cccc[n+]4CCOCCCC)c4ccc1[n-]4)C=C3)C=C2.[Mn+3] [MnBuOE, Mn(III) meso-tetrakis (N-n-butoxyetylpyridium-2-yl) porphyrin]
Cmax ([1]; 1 mg/kg, ref unpublished data): 1000 nM | Cmax ([1]; dose adjusted from 6 mg/kg): ~300 nM | Cmax [2]: 1600 nM | heart rate 1 h after each injection (normal dogs [3]): Mildly to moderately increased heart rate | baseline pulse prior to injection (normal dogs [3]; multiple doses): not altered | plasma MnBuOE concentration following the initial dose [4, 9]: 1.4 µM | plasma MnBuOE concentration plateau with subsequent doses [4, 9]: 0.85 to 1.1 µM | trough plasma levels ([4]; 0.25 mg/kg sc Mon/Wed/Fri, just prior to injection): very low | accumulation of the drug in plasma ([4]; 0.25 mg/kg sc Mon/Wed/Fri, long-term treatment): no accumulation of the drug in plasma was observed; also recorded: no accumulation observed over time | no adverse effects level (NOAEL), loading dose (mice): 12 mg/kg | no adverse effects level (NOAEL), maintenance dose (mice): 2 mg/kg | no adverse effects level (NOAEL), loading dose (nonhuman primates): 6 mg/kg | no adverse effects level (NOAEL), maintenance dose (nonhuman primates): 2 mg/kg | Urinalysis (normal dogs [5]; 3 weeks post 0.25 mg/kg Mon/Wed/Fri): Alkaline urine (pH = 9) (n = 2/3) | Complete blood cell count (normal dogs [5]; 3 weeks post 0.25 mg/kg Mon/Wed/Fri, concurrent diphenhydramine, famotidine, prednisone): Stress leukogram (exogenous glucocorticoids) (n = 3/3) | Chemistry panel: acid-base finding (normal dogs [5]; [10]): Slight to mild metabolic acidosis (increased anion gap) | Chemistry panel: cholesterol finding (normal dogs [5]; [10]): Mild hypocholesterolemia | Chemistry panel: liver enzyme finding (normal dogs [5]; [10]): Mildly increased liver enzyme activity (ALP, ALT) | Chemistry panel (normal dogs [5]; 48 h post 0.25 mg/kg): No remarkable changes in serum biochemistries were seen; also recorded: Unremarkable | Complete blood cell count (normal dogs [5]; 48 h post 0.25 mg/kg): Unremarkable | Urinalysis (normal dogs [5]; 48 h post 0.25 mg/kg, one dog analyzed): Alkaline urine (pH = 9) (n = 1/1) | Chemistry panel (normal dogs [5]; 48 h post 1 mg/kg): Unremarkable | Complete blood cell count (normal dogs [5]; 48 h post 1 mg/kg): Unremarkable | Urinalysis (normal dogs [5]; 48 h post 1 mg/kg): Alkaline urine (pH = 9) (n = 2/3) | mean anion gap (normal dogs [5]; final day of 3-week 0.25 mg/kg study, reference range 11.2–19.9): 21.5 | mean ALT (normal dogs [5]; final day of 3-week 0.25 mg/kg study, reference range 12–54 IU/L): 133 IU/L | mean ALP (normal dogs [5]; final day of 3-week 0.25 mg/kg study, reference range 16–140 IU/L): 203 IU/L | mean cholesterol (normal dogs [5]; final day of 3-week 0.25 mg/kg study, reference range 124–344 mg/dL): 96 mg/dL | plasma half-life t 1/2, primary elimination from central compartment ([6]; single 1 mg/kg sc, 6 to 48 h): 7 h | Cmax ([6]; single 1 mg/kg sc, 30 min post-injection, 1 mg/kg, read-out: peak plasma concentration (C max), mean): 3990 nM and 4000 nM | estimated terminal half-life (secondary processes) ([6]; single 1 mg/kg sc, 48 h to 14 days): 480 h | MnBuOE remaining in plasma ([6]; single 1 mg/kg sc, at 48 h): 1% | time of peak plasma drug concentration (T max) ([6]; single 1 mg/kg sc, post-injection): 0.5 h | AUCinfinite [6, 11]: 42.52 | C max [6, 11]: 4830 ng/mL | CL/F [6, 11]: 0.02 L/h/kg body weight | V/F (4–48 h process) [6, 11]: 0.14 L/kg body weight | t 1/2 (4–48 h) [6, 11]: 6.64 h | t max ([6]; single 1 mg/kg sc, first order absorption two compartments, averaged profile 0–48 h): 0.46 h | AUC0–48h [6, 12]: 52.09 | AUCinfinite [6, 12]: 57.82 | C max [6, 12]: 5000 ng/mL | CL/F [6, 12]: 0.020 L/h/kg body weight | V/F (4–48 h process) [6, 12]: 0.21 L/kg body weight | V/F (7–14 day process) [6, 12]: 13.42 L/kg body weight | t 1/2 (4–48 h) [6, 12]: 7.13 h | t 1/2 (7–14 day) [6, 12]: 509.8 h | t max ([6]; single 1 mg/kg sc, non-compartmental (WinNonlin), individual dogs): 0.5 h | drug eliminated from the plasma ([6]; single-dose 14-day PK study, after 48 h): 99% | Characteristics of lesion, kidney (normal dogs [7]; necropsy): Acute, multifocal, mild Acute multifocal, moderate | Characteristics of lesion, liver (normal dogs [7]; necropsy): Marked, multifocal to diffuse, random Marked, multifocal to diffuse, centrilobular to random Marked, diffuse, panlobular, random | Characteristics of lesion, lung (normal dogs [7]; necropsy): Multifocal, mild, neutrophilic, sterile Multifocal, moderate, neutrophilic sterile | Characteristics of lesion, subcutaneous adipose (normal dogs [7]; necropsy): Multifocal, mild | Histopathologic appearance, lymph nodes (normal dogs [7]; necropsy): mildly reactive | Incidence of diagnosis, kidney (normal dogs [7]; necropsy): n = 3/3 | Incidence of diagnosis, liver (normal dogs [7]; necropsy): n = 3/3 | Incidence of diagnosis, lung (normal dogs [7]; necropsy): n = 3/3 | Incidence of diagnosis, subcutaneous adipose (normal dogs [7]; necropsy): n = 3/3 | Histopathologic diagnosis, kidney (normal dogs [7]; necropsy 48 h after last dose): acute, mild to moderate tubular degeneration and necrosis of the kidney | Histopathologic diagnosis, liver (normal dogs [7]; necropsy 48 h after last dose): marked hydropic degeneration of the liver | Histopathologic diagnosis, lung (normal dogs [7]; necropsy 48 h after last dose): mild to moderate sterile bronchointerstitial/interstitial pneumonia | Histopathologic diagnosis, subcutaneous adipose (injection site) (normal dogs [7]; necropsy 48 h after last dose): mild necrosupporative/granulomatous inflammation; also recorded: Necrosuppurative/granulomatous steatitis | Cmax [8]: 1000 nM
